From ChEMBL document CHEMBL1139284, “Synthesis and evaluation of novel photoreactive alpha-amino acid analog carrying acidic and cleavable functions” (Bioorg Med Chem Lett, 2009)
Calls of active or inactive are those of the source. No cut-off for these calls is given here.

What was measured:
[1] = target: Glutamyl endopeptidase (Staphylococcus aureus, UniProt P0C1U8); test: Binding affinity to Staphylococcus aureus V8 glutamyl endopeptidase; conditions: read-out: Ki(app)
[2] = target: Glutamyl endopeptidase (Staphylococcus aureus) (UniProt P0C1U8); test: Binding affinity to Staphylococcus aureus V8 glutamyl endopeptidase after 40 mins of UV irradiation by photoaffinity labeling assay

Ki [1] [µM] | Activity [2] | SMILES
162 |  | CC(C)(C)OC(=O)N[C@@H](CS(=O)(=O)NC(=O)c1ccc(C2(C(F)(F)F)N=N2)cc1)C(=O)NCCOCCOCCNC(=O)CCCC[C@@H]1SCC2NC(=O)NC21 (some centres undefined)
 | Active | CC(C)(C)OC(=O)N[C@@H](CCC(=O)O)C(N)=O
 | inactive | CC(C)(C)OC(=O)N[C@@H](CCC(=O)OCc1ccccc1)C(N)=O
 | Active | CC(C)(C)OC(=O)N[C@@H](CS(=O)(=O)NC(=O)c1ccccc1)C(N)=O
